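48-hour exposure; five concentrations; linearly interpolated endpoints. The concentration for full growth arrest is given as TGI.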
Legend:
Experiment in all cases: growth of human tumour cells (NCI), 48 h
HOP-62 NSCLC = tested on: HOP-62 NSCLC
HCT-116 colon = tested on: HCT-116 colon
ACHN renal = tested on: ACHN renal
CAKI-1 renal = tested on: CAKI-1 renal
MDA-MB-435 = tested on: MDA-MB-435
U251 CNS = tested on: U251 CNS
M14 melanoma = tested on: M14 melanoma
OVCAR-5 ovarian = tested on: OVCAR-5 ovarian
NCI-H226 lung = tested on: NCI-H226 lung
SK-MEL-5 melanoma = tested on: SK-MEL-5 melanoma
SR leukemia = tested on: SR leukemia
NCI-H460 lung = tested on: NCI-H460 lung
SF-539 CNS = tested on: SF-539 CNS
PC-3 prostate = tested on: PC-3 prostate
IGROV1 ovarian = tested on: IGROV1 ovarian
RPMI-8226 leukemia = tested on: RPMI-8226 leukemia
EKVX NSCLC = tested on: EKVX NSCLC
T-47D breast = tested on: T-47D breast
RXF 393 renal = tested on: RXF 393 renal
COLO 205 colon = tested on: COLO 205 colon
KM12 colon = tested on: KM12 colon
SNB-75 CNS = tested on: SNB-75 CNS
K-562 leukemia = tested on: K-562 leukemia
HCC-2998 colon = tested on: HCC-2998 colon
UACC-257 melanoma = tested on: UACC-257 melanoma
OVCAR-3 ovarian = tested on: OVCAR-3 ovarian
SN12C renal = tested on: SN12C renal
DU-145 prostate = tested on: DU-145 prostate
786-0 renal = tested on: 786-0 renal
TK-10 renal = tested on: TK-10 renal
UACC-62 melanoma = tested on: UACC-62 melanoma
HL-60(TB) leukemia = tested on: HL-60(TB) leukemia
OVCAR-4 ovarian = tested on: OVCAR-4 ovarian
SNB-19 CNS = tested on: SNB-19 CNS
BT-549 breast = tested on: BT-549 breast
NCI/ADR-RES ovarian = tested on: NCI/ADR-RES ovarian
SW-620 colon = tested on: SW-620 colon
NCI-H522 lung = tested on: NCI-H522 lung
MDA-MB-231 breast = tested on: MDA-MB-231 breast
A549 NSCLC = tested on: A549 NSCLC
CCRF-CEM leukemia = tested on: CCRF-CEM leukemia
OVCAR-8 ovarian = tested on: OVCAR-8 ovarian
A498 renal = tested on: A498 renal
MCF7 breast = tested on: MCF7 breast
NCI-H23 lung = tested on: NCI-H23 lung
UO-31 renal = tested on: UO-31 renal
MDA-N = tested on: MDA-N
HCT-15 colon = tested on: HCT-15 colon
MALME-3M melanoma = tested on: MALME-3M melanoma
SK-MEL-28 melanoma = tested on: SK-MEL-28 melanoma
SK-OV-3 ovarian = tested on: SK-OV-3 ovarian
HT29 colon = tested on: HT29 colon
SF-295 CNS = tested on: SF-295 CNS
SK-MEL-2 melanoma = tested on: SK-MEL-2 melanoma
LOX IMVI melanoma = tested on: LOX IMVI melanoma
MOLT-4 leukemia = tested on: MOLT-4 leukemia
HOP-92 NSCLC = tested on: HOP-92 NSCLC
SF-268 CNS = tested on: SF-268 CNS
HS 578T breast = tested on: HS 578T breast

Compound: C=Cc1ccccc1C1C(C(=O)OCC)=C(C)N=C2OC(C(=O)OC)C(=O)N21 (stereo not given)
- TGI (HOP-62 NSCLC): > 100 µM
- TGI (HCT-116 colon): > 100 µM
- TGI (ACHN renal): > 100 µM
- TGI (CAKI-1 renal): > 100 µM
- TGI (MDA-MB-435): > 100 µM
- TGI (U251 CNS): > 100 µM
- TGI (M14 melanoma): > 100 µM
- TGI (OVCAR-5 ovarian): > 100 µM
- TGI (NCI-H226 lung): > 100 µM
- TGI (SK-MEL-5 melanoma): > 100 µM
- TGI (SR leukemia): > 100 µM
- TGI (NCI-H460 lung): > 100 µM
- TGI (SF-539 CNS): > 100 µM
- TGI (PC-3 prostate): > 100 µM
- TGI (IGROV1 ovarian): > 100 µM
- TGI (RPMI-8226 leukemia): > 100 µM
- TGI (EKVX NSCLC): > 100 µM
- TGI (T-47D breast): > 100 µM
- TGI (RXF 393 renal): > 100 µM
- TGI (COLO 205 colon): > 100 µM
- TGI (KM12 colon): > 100 µM
- TGI (SNB-75 CNS): > 100 µM
- TGI (K-562 leukemia): > 100 µM
- TGI (HCC-2998 colon): > 100 µM
- TGI (UACC-257 melanoma): > 100 µM
- TGI (OVCAR-3 ovarian): > 100 µM
- TGI (SN12C renal): > 100 µM
- TGI (DU-145 prostate): > 100 µM
- TGI (786-0 renal): > 100 µM
- TGI (TK-10 renal): > 100 µM
- TGI (UACC-62 melanoma): > 100 µM
- TGI (HL-60(TB) leukemia): > 100 µM
- TGI (OVCAR-4 ovarian): > 100 µM
- TGI (SNB-19 CNS): > 100 µM
- TGI (BT-549 breast): > 100 µM
- TGI (NCI/ADR-RES ovarian): > 100 µM
- TGI (SW-620 colon): > 100 µM
- TGI (NCI-H522 lung): > 100 µM
- TGI (MDA-MB-231 breast): > 100 µM
- TGI (A549 NSCLC): > 100 µM
- TGI (CCRF-CEM leukemia): > 100 µM
- TGI (OVCAR-8 ovarian): > 100 µM
- TGI (A498 renal): > 100 µM
- TGI (MCF7 breast): > 100 µM
- TGI (NCI-H23 lung): > 100 µM
- TGI (UO-31 renal): > 100 µM
- TGI (MDA-N): > 100 µM
- TGI (HCT-15 colon): > 100 µM
- TGI (MALME-3M melanoma): > 100 µM
- TGI (SK-MEL-28 melanoma): > 100 µM
- TGI (SK-OV-3 ovarian): > 100 µM
- TGI (HT29 colon): > 100 µM
- TGI (SF-295 CNS): > 100 µM
- TGI (SK-MEL-2 melanoma): > 100 µM
- TGI (LOX IMVI melanoma): > 100 µM
- TGI (MOLT-4 leukemia): > 100 µM
- TGI (HOP-92 NSCLC): > 100 µM
- TGI (SF-268 CNS): > 100 µM

Compound: C=C(C)C12OC3(c4ccccc4)OC1C1C4OC4(CO)C(O)C4(O)C(=O)C(C)=CC4C1(O3)C(C)C2OC(=O)/C=C/C=C/c1ccccc1 (stereo not given)
- TGI (HOP-62 NSCLC): 1.65 µM
- TGI (HCT-116 colon): 0.887 µM
- TGI (ACHN renal): 0.557 µM
- TGI (CAKI-1 renal): 1.52 µM
- TGI (MDA-MB-435): 0.742 µM
- TGI (U251 CNS): 0.894 µM
- TGI (M14 melanoma): 0.409 µM
- TGI (OVCAR-5 ovarian): 0.597 µM
- TGI (NCI-H226 lung): 1.06 µM
- TGI (SK-MEL-5 melanoma): 0.989 µM
- TGI (SR leukemia): 0.385 µM
- TGI (NCI-H460 lung): 3.04 µM
- TGI (SF-539 CNS): 1.52 µM
- TGI (PC-3 prostate): 0.62 µM
- TGI (IGROV1 ovarian): 2.4 µM
- TGI (RPMI-8226 leukemia): 0.519 µM
- TGI (EKVX NSCLC): 1.13 µM
- TGI (T-47D breast): 4.84 µM
- TGI (RXF 393 renal): 1.07 µM
- TGI (COLO 205 colon): 0.0416 µM
- TGI (KM12 colon): 0.862 µM
- TGI (SNB-75 CNS): 1.15 µM
- TGI (K-562 leukemia): 2.35 µM
- TGI (HCC-2998 colon): 0.246 µM
- TGI (UACC-257 melanoma): 1.94 µM
- TGI (OVCAR-3 ovarian): 0.316 µM
- TGI (SN12C renal): 0.37 µM
- TGI (DU-145 prostate): 1.47 µM
- TGI (786-0 renal): 0.699 µM
- TGI (UACC-62 melanoma): 1.29 µM
- TGI (HL-60(TB) leukemia): 0.107 µM
- TGI (OVCAR-4 ovarian): 0.697 µM
- TGI (SNB-19 CNS): 5 µM
- TGI (BT-549 breast): 0.97 µM
- TGI (NCI/ADR-RES ovarian): 1.38 µM
- TGI (NCI-H522 lung): 1.1 µM
- TGI (MDA-MB-231 breast): 0.264 µM
- TGI (A549 NSCLC): 2.39 µM
- TGI (CCRF-CEM leukemia): 1.5 µM
- TGI (OVCAR-8 ovarian): 1.15 µM
- TGI (A498 renal): 0.183 µM
- TGI (MCF7 breast): 0.911 µM
- TGI (NCI-H23 lung): 1.4 µM
- TGI (UO-31 renal): 0.576 µM
- TGI (MDA-N): 0.817 µM
- TGI (HCT-15 colon): 1.98 µM
- TGI (MALME-3M melanoma): 1.24 µM
- TGI (SK-MEL-28 melanoma): 1.55 µM
- TGI (SK-OV-3 ovarian): 4.73 µM
- TGI (HT29 colon): 0.22 µM
- TGI (SF-295 CNS): 1.09 µM
- TGI (SK-MEL-2 melanoma): 1.89 µM
- TGI (LOX IMVI melanoma): 0.411 µM
- TGI (MOLT-4 leukemia): 2.34 µM
- TGI (HOP-92 NSCLC): 0.836 µM
- TGI (SF-268 CNS): 1.25 µM

Compound: O=C(O)c1ccccc1/C=C1\Cc2ccccc2C1=O
- TGI (HOP-62 NSCLC): > 100 µM
- TGI (HCT-116 colon): > 100 µM
- TGI (ACHN renal): > 100 µM
- TGI (CAKI-1 renal): > 100 µM
- TGI (MDA-MB-435): > 100 µM
- TGI (U251 CNS): > 100 µM
- TGI (M14 melanoma): > 100 µM
- TGI (OVCAR-5 ovarian): > 100 µM
- TGI (NCI-H226 lung): > 100 µM
- TGI (SK-MEL-5 melanoma): > 100 µM
- TGI (SR leukemia): > 100 µM
- TGI (NCI-H460 lung): > 100 µM
- TGI (SF-539 CNS): > 100 µM
- TGI (PC-3 prostate): > 100 µM
- TGI (IGROV1 ovarian): > 100 µM
- TGI (RPMI-8226 leukemia): > 100 µM
- TGI (EKVX NSCLC): > 100 µM
- TGI (T-47D breast): > 100 µM
- TGI (RXF 393 renal): > 100 µM
- TGI (COLO 205 colon): > 100 µM
- TGI (KM12 colon): > 100 µM
- TGI (SNB-75 CNS): > 100 µM
- TGI (K-562 leukemia): > 100 µM
- TGI (HCC-2998 colon): > 100 µM
- TGI (UACC-257 melanoma): > 100 µM
- TGI (OVCAR-3 ovarian): > 100 µM
- TGI (SN12C renal): > 100 µM
- TGI (DU-145 prostate): > 100 µM
- TGI (786-0 renal): > 100 µM
- TGI (TK-10 renal): > 100 µM
- TGI (UACC-62 melanoma): > 100 µM
- TGI (HL-60(TB) leukemia): > 100 µM
- TGI (OVCAR-4 ovarian): > 100 µM
- TGI (SNB-19 CNS): > 100 µM
- TGI (BT-549 breast): > 100 µM
- TGI (NCI/ADR-RES ovarian): > 100 µM
- TGI (SW-620 colon): > 100 µM
- TGI (NCI-H522 lung): > 100 µM
- TGI (A549 NSCLC): > 100 µM
- TGI (CCRF-CEM leukemia): > 100 µM
- TGI (OVCAR-8 ovarian): > 100 µM
- TGI (A498 renal): > 100 µM
- TGI (MCF7 breast): > 100 µM
- TGI (NCI-H23 lung): > 100 µM
- TGI (UO-31 renal): > 100 µM
- TGI (MDA-N): > 100 µM
- TGI (HCT-15 colon): > 100 µM
- TGI (MALME-3M melanoma): > 100 µM
- TGI (SK-MEL-28 melanoma): > 100 µM
- TGI (HT29 colon): > 100 µM
- TGI (SF-295 CNS): > 100 µM
- TGI (SK-MEL-2 melanoma): > 100 µM
- TGI (LOX IMVI melanoma): > 100 µM
- TGI (MOLT-4 leukemia): > 100 µM
- TGI (HS 578T breast): > 100 µM
- TGI (SF-268 CNS): > 100 µM
